Data set [1] can be described thus: LD50 in the mouse. The conditions noted are these: in vivo.
Data set [2] is described as follows: LD50 in the rat. The conditions noted are these: in vivo, female.
[3] abbreviates: ip, intraperitoneally in the mouse.

As usually defined, the LD50 is the dose expected to kill half of the subjects tested. Read a high LD50 as a less toxic substance.

Take `CN(C)CCSc1nc2ccccc2cc1-c1ccccc1.Cl` [2-(2-dimethylaminoethylthio)-3-phenylquinoline hydrochloride]: the LD50 in data set [1] (ip, mouse, male, intraperitoneal) is 75 mg/kg; in data set [1] (mouse, male, oral) it was 485 mg/kg; in data set [2] (oral), over 1000 mg/kg; in data set [2] (ip, intraperitoneal) it was 128 mg/kg.
`COc1ccccc1-c1cc2ccccc2nc1SCCN(C)C.Cl` [2-(2-dimethylaminoethylthio)-3-(o-methoxyphenyl)-quinoline hydrochloride]: the LD50 in data set [1] (setting [3]) is about 150 mg/kg.
Still for that read-out and setting: the same measure for `CC(C)c1cc2ccccc2nc1SCCN(C)C.Cl` [2-(2-dimethylaminoethylthio)-3-isopropylquinoline hydrochloride]: about 100 mg/kg.

Values taken from patent US4435405A, “Quinoline derivatives which are 5-hydroxytryptamine antagonists” (Imperial Chemical Industries PLC, priority 1981, dated 1984).
